Calls of active or inactive are those of the source.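 How the source made its calls: active means compounds whose fitted half-maximal concentration is at most ten times their top valid tested dose; inconclusive means flat fit showing moderate inhibition, or poor fit quality; inactive means the rest.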
Molecular target: Aurora kinase B (Homo sapiens) (UniProt Q96GD4)
Experiment: Aurora B kinase inhibition counter-screen, dose response, counter-screen for STK33 inhibitor project, biochemical, scintillation, dry powder (AID 588757)
Settings: ATP at Km, gamma-32P-ATP, 40 min room temperature, P30 filtermat scintillation counting; for activity change, negative = inhibition: at 3 µM (top of the series)

Aurora kinase B (Homo sapiens), sequence (Q96GD4 whole entry, looked up): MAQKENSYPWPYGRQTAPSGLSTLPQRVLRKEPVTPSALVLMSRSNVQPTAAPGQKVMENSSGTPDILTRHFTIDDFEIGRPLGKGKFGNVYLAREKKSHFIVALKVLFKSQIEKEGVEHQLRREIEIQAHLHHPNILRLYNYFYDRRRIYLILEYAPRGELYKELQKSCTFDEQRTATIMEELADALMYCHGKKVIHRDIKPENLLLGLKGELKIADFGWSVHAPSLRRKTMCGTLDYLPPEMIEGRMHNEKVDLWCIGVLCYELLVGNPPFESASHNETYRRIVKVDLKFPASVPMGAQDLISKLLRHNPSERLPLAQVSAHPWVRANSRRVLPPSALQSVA

| activity change, negative = inhibition | AC50 | Structure (SMILES) |
| --- | --- | --- |
|  | 346 nM | Cc1ncc(/C=C2\C(=O)Nc3ccccc32)[nH]1 |
| inactive |  | O=C(Nc1ccccc1-c1nc2ccccc2[nH]c1=O)c1cccs1 |
| inactive |  | O=S(=O)(c1cccc2cnccc12)N1CCCNCC1 |
|  | > 3000 nM (inactive) | CCOc1ccccc1C(=O)Nc1cc(Cl)ccc1O |
|  | 1660 nM | O=C(Nc1ccccc1-c1ccccc1)c1ccc(Br)o1 |

The remaining lines, values behind:

| Structure (SMILES) | activity change, negative = inhibition | AC50 |
| --- | --- | --- |
| COc1cc(C(=O)NC2CCN(C)CC2)ccc1Nc1ncc2c(n1)N(C1CCC(O)CC1)CCC(=O)N2C (centres undefined) | inactive |  |
| COc1cc(/C=N/n2c(-c3ccccc3)n[nH]c2=S)ccc1O | inactive |  |
| Oc1ccc(Nc2nc(-c3ccccc3O)nc3ccccc23)cc1 |  | 142 nM |
| CC(=O)N(C)c1ccc(N=Cc2c(O)ccc3ccccc23)cc1 | inactive |  |
| CC(C)n1cnc2c(Nc3cccc(Cl)c3)nc(NCCO)nc21 |  | 1470 nM |
| Nc1nc(-c2cc(O)ccc2[N+](=O)[O-])cc(-c2ccccc2)c1[N+](=O)[O-] |  | 12.6 nM |
| COC(=O)c1ccc(COc2ccccc2/C=C/C(=O)c2ccc(OCC(=O)O)cc2)cc1 | inactive |  |
| CCCn1c(NC(=O)c2cccc(S(=O)(=O)N3CCCC3)c2)nc2ccccc21 |  | 170 nM |
| COc1cc(/C=C2\SC(N)=NC2=O)ccc1O | inactive |  |

From PubChem BioAssay AID588757 (Broad Institute, 2011)
